We go through 18 substances from paper PMC5322338 (Scientific Reports, 2017).

One may read the Km as the concentration of substrate that gives half-maximal velocity. What is called kcat is the maximal rate divided by the concentration of active sites.

Data set [1] deals with T1, Human neutrophil elastase (Homo sapiens, UniProt P08246).
T1 construct: purchased Biocentrum (Krakow, Poland)
T1 sequence (P08246 30-267): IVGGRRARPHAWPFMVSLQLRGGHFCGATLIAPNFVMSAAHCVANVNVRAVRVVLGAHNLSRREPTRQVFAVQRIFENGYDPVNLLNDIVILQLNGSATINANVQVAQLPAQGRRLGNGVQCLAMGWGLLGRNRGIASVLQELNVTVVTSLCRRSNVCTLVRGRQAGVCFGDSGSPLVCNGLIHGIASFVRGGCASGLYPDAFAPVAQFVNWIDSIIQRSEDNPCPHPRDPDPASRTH
Kind of data set: IQF substrate hydrolysis kinetics with neutrophil elastase. The data set is classed as biochemical. Conditions: substrate 0.3-5 μM, 0.1 M HEPES, 0.5 M NaCl pH 7.5, 37 °C, mean of at least three, SD <10%. As to the method: (§1) All kinetic measurements were performed using a Spectra Max Gemini XPS spectrofluorimeter (Molecular Devices) at 37 °C. For the substrates with the new donor acceptor pair, ACC/DNP, the excitation wavelength was 355 nm, and the emission wavelength was 460 nm; for MCA/DNP, the corresponding values were 325 and 420 nm, respectively. The substrate concentrations were varied, and the enzyme concentration was kept constant in each assay; the total reaction volume was 100 μl. Measurements were conducted for 30 min, and only the linear part of the progress curve was used to determine the reaction velocity. The measurements were repeated, and the data presented are the average of at least three measurements. The catalytic parameters kcat and KM were established using GraphPad Prism software to directly fit the initial velocities and initial substrate concentrations to the Michaelis-Menten equation using non-linear regression analysis.
Assays with neutrophil elastase were performed in a buffer containing 0.1 M HEPES and 0.5 M NaCl at pH 7.5[9]. The enzyme was incubated in assay buffer for 10 min at 37 °C prior to the substrate addition and the measurement. For elastase, the concentration of substrates containing ACC ranged from 0.3 to 5 μM, and the enzyme concentration was 0.344 nM. The concentration of substrates containing MCA was ranged from 0.3 to 5 μM, and the enzyme concentration was 1.4 nM.

Data set [2] deals with T2, caspase-8 (Homo sapiens, UniProt Q14790).
T2 construct: made in house
The data set can be described thus: IQF substrate hydrolysis kinetics with caspase-8. Conditions: ACC/Lys(DNP) substrate; caspase-8 20 nM; substrate 4-80 μM; Pipes buffer pH 7.2-7.4 with 1 M sodium citrate; 37 °C; ex 355/em 460 nm; mean of at least three, SD <10%. The data set is classed as biochemical. As to the method: as §1
(§2) Caspase assays were performed in a buffer containing 20 mM Pipes, 0.1 M NaCl, 1 mM EDTA, 10 mM DTT, and 10% (w/v) sucrose at pH 7.2 to 7.4[61]. The buffer used for caspase-8, caspase-9 and caspase-10 was supplemented with 1 M sodium citrate. Each caspase was incubated with assay buffer for 30 min at 37 °C before the substrates were added. For caspase-3, the concentration of substrates containing ACC or MCA on the measurement plate ranged from 1 to 50 μM, and the enzyme concentration ranged from 1 to 3 nM. For caspase-7, the concentration of substrates containing ACC or MCA on the measurement plate ranged from 1 to 50 μM, and the enzyme concentration ranged from 10 to 30 nM. For caspase-8, the concentration of a substrates containing ACC or MCA on the measurement plate ranged from 4 to 80 μM, and the enzyme concentration ranged from 20 to 50 nM.
(§3) To obtain further insight into the caspase P1-P1′ preferences, we determined the kinetic parameters for selected IQF substrates. The kinetic analysis was performed in a similar manner to that described above (Substrate Kinetics). The buffers used for caspase-8, caspase-9, and caspase-10 were supplemented with 1.0 M sodium citrate. The enzyme concentrations were as follows: caspase-3, 6 nM; caspase-7, 25 nM; caspase-8, 30–60 nM; caspase-9, 20–140 nM; and caspase-10, 25–125 nM. When testing initiator caspases, the higher enzyme concentration was used for non-optimal LEHE/X substrates.

Data set [3] deals with T3, caspase-7 (Homo sapiens, UniProt P55210).
T3 construct: made in house
T3 sequence (P55210 24-198 limits assumed): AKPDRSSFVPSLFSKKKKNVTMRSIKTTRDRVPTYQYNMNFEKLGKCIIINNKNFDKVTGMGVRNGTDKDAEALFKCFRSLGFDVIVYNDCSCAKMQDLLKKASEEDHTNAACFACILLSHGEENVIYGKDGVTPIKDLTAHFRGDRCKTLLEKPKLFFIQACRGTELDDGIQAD
T3 sequence (P55210 207-303 limits assumed): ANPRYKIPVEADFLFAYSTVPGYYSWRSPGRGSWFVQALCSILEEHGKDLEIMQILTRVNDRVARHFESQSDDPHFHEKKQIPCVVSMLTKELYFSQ
The data set can be described thus: IQF substrate hydrolysis kinetics with caspase-7. The data set is classed as biochemical. The note with it: ACC/Lys(DNP) substrate; caspase-7 10 nM; substrate 1-50 μM; Pipes buffer pH 7.2-7.4; 37 °C; ex 355/em 460 nm; mean of at least three, SD <10%. Here is the method: as §1, §2, §3

For data set [4], the target named is T4, caspase-3 (Homo sapiens, UniProt P42574).
T4 construct: made in house
T4 sequence (P42574 29-175 limits assumed): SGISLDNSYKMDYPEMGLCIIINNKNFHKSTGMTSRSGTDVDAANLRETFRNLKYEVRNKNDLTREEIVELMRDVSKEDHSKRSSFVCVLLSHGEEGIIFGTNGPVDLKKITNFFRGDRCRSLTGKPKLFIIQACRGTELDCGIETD
T4 sequence (P42574 176-277 limits assumed): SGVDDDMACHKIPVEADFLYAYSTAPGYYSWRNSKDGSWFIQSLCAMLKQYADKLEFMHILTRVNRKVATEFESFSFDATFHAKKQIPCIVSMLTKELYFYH
The data set can be described thus: IQF substrate hydrolysis kinetics with caspase-3. The data set is classed as biochemical. The note with it: ACC/Lys(DNP) substrate; caspase-3 1.0 nM; substrate 1-50 μM; Pipes buffer pH 7.2-7.4; 37 °C; ex 355/em 460 nm; mean of at least three, SD <10%. Here is the method:
as §1, §2, §3

Data set [5] has as its system caspase-7. Kind of data set: caspase-7 in caspase buffer, IQF library screening and kinetics. The note with it: human, 37 °C, up to 30 min.
Data set [6] concerns caspase-3. Kind of data set: caspase-3 in caspase buffer, IQF library screening and kinetics. Conditions: human, 37 °C, up to 30 min.
The test system of data set [7] is caspase-8. The data set can be described thus: caspase-8 in caspase buffer supplemented with 1.0 M sodium citrate, IQF library screening and kinetics. The note with it: human, 37 °C, up to 30 min.
A further data set deals with caspase-9. The data set can be described thus: caspase-9 in caspase buffer supplemented with 1.0 M sodium citrate, IQF library screening and kinetics. The note with it: human, 37 °C, up to 30 min.
A further data set has as its system caspase-10. Kind of data set: caspase-10 in caspase buffer supplemented with 1.0 M sodium citrate, IQF library screening and kinetics. The note with it: human, 37 °C, up to 30 min.
The subject of a further data set is trypsin. Kind of data set: IQF substrate hydrolysis kinetics with trypsin. The data set is classed as biochemical. Conditions: for kcat/Km values: ACC-GGLSX*IVK(DNP)G substrates, residue named = P1, trypsin. As to the method: as §1, with “For the substrates with the new donor acceptor pair, ACC/DNP, the excitation wavelength was 355 nm, and the emission wavelength was 460 nm; for MCA/DNP, the corresponding values were 325 and 420 nm, respectively.” left out
Trypsin was assayed in a buffer containing 0.05 M Tris, 0.15 M NaCl, and 0.01% Triton X100 at pH 7.6. The enzyme was incubated with the assay buffer for 10 min at 37 °C prior to the substrate addition and the measurement. Eight internally quenched substrates were tested in the assay. The trypsin concentration for substrates containing Arg and Lys at P1 was 0.1 nM; for Arg(Me) substrates, the enzyme concentration was 30 nM; and for all other substrates, the enzyme concentration was 200 nM.

The mark [8] stands for this setting: ACC/Lys(DNP) substrate, elastase 0.34 nM, ex 355/em 460 nm.
Setting [9] is: ACC-GGLS(P1)*IVK(DNP)G-NH2 hydrolysis by trypsin, trypsin 0.1 nM (Arg, Lys), 30 nM (Arg(Me)), 200 nM (all others), 0.05 M Tris, 0.15 M NaCl, 0.01% Triton X100 pH 7.6, 37 °C, SD <10% (Arg/Lys), <15% (modified).
Setting [10] is: MCA/Lys(DNP) substrate, elastase 1.4 nM, ex 325/em 420 nm.

T2 sequence (Q14790 217-374 limits assumed): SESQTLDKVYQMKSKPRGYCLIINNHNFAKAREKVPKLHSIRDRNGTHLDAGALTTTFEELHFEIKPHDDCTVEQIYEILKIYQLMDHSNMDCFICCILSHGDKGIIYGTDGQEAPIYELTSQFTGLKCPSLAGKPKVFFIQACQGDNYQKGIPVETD
T2 sequence (Q14790 385-479 limits assumed): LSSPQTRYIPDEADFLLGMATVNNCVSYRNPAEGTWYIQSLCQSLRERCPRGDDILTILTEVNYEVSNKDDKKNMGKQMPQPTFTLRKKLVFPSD

“ACC-GAEPV*SLK(dnp)L-NH2 [ACC/Lys(DNP) internally quenched fluorescent substrate for human neutrophil elastase]”: in data set [1] (setting [8]), the Km turned out to be 1.22 µM, the catalytic constant (kcat) was 2.44 s⁻¹ and the kcat/KM is on record as 2 006 000 M^−1s^−1.
Turning to “ACC-GDEVD*GVK(dnp)D-NH2 [ACC/Lys(DNP) internally quenched fluorescent substrate for caspases]”, the Km was determined as 11 µM on caspase-8 [2], 8.36 µM at caspase-7 [3] and 6.74 µM at caspase-3 [4]. For the same substance, the kcat at caspase-8 [2] is 0.32 s⁻¹; at caspase-7 [3] it was 0.47 s⁻¹; on caspase-3 [4], 7.52 s⁻¹. The kcat/KM on caspase-8 [2] is 29 400 M^−1s^−1; at caspase-7 [3], 56 800 M^−1s^−1; on caspase-3 [4] it was 1 116 000 M^−1s^−1.
ACC-GDEVD/XKK(dnp)G-NH2 [DEVD/A]: the cleaved bond entry in the data set with caspase-7 [5] and in the data set with caspase-3 [6] was “D-A” throughout.
ACC-GDEVD/XKK(dnp)G-NH2 [DEVD/G]: the cleaved bond entry in the data set with caspase-7 [5] and in the data set with caspase-3 [6] was “D-G” throughout.
Regarding ACC-GDEVD/XKK(dnp)G-NH2 [DEVD/S], the cleaved bond entry with caspase-7 [5] and in the data set with caspase-3 [6] was “D-S” throughout.
With ACC-GDEVE/XKK(dnp)G-NH2 [DEVE/S], the cleaved bond entry with caspase-7 [5] and in the data set on caspase-3 [6] was “E-S” in each case.
ACC-GLEHD(G/A/S)KK(dnp)G-NH2 [LEHD/A]: the cleaved bond entry in the data set with caspase-8 [7], in the data set on caspase-9 and with caspase-10 was “D-A” throughout.
On to ACC-GLEHD(G/A/S)KK(dnp)G-NH2 [LEHD/G], for which the cleaved bond entry with caspase-8 [7], in the data set with caspase-9 and in the data set with caspase-10 was “D-G” each time.
Regarding ACC-GLEHD(G/A/S)KK(dnp)G-NH2 [LEHD/S], the cleaved bond entry in the data set with caspase-8 [7], in the data set with caspase-9 and in the data set on caspase-10 was “D-S” throughout.
As for ACC-GLEHE(G/A/S)KK(dnp)G-NH2 [LEHE/A], the cleaved bond result in the data set with caspase-8 [7], in the data set with caspase-9 and in the data set on caspase-10 was “E-A” throughout.
For the substance ACC-GLEHE(G/A/S)KK(dnp)G-NH2 [LEHE/G], the cleaved bond entry in the data set on caspase-8 [7], in the data set on caspase-9 and with caspase-10 was “E-G” in each case.
As to ACC-GLEHE(G/A/S)KK(dnp)G-NH2 [LEHE/S], the cleaved bond result in the data set on caspase-8 [7], with caspase-9 and in the data set on caspase-10 was “E-S” in each case.
On to Alanine, for which, in the data set with trypsin (setting [9]), the KM result is “No measurable hydrolysis”, the kcat entry is “No measurable hydrolysis” and the kcat/KM entry is “No measurable hydrolysis”. Besides, the kcat/Km values result in the data set on trypsin is “did not recognize”.
As for Arginine, in the data set on trypsin (setting [9]), the Km is 2.5 µM, the kcat turned out to be 24.1 s⁻¹ and the kcat/KM was 9 624 000 s^−1M^−1. The kcat/Km values with trypsin is given as 9,624,000 M^−1s^−1.
In the case of Citrulline, in the data set with trypsin (setting [9]), the Km came out at 90.3 µM, the kcat turned out to be 0.000359 s⁻¹ and the kcat/KM stood at 4 s^−1M^−1.
Turning to Lysine, in the data set with trypsin (setting [9]), the Km is 2.8 µM, the kcat came out at 4.2 s⁻¹ and the kcat/KM is on record as 1 500 000 s^−1M^−1. Further, in the data set on trypsin, the kcat/Km values is 1,500,000 M^−1s^−1.
Take “MCA-GAEPV*SLK(dnp)L-NH2 [MCA/Lys(DNP) internally quenched fluorescent substrate for human neutrophil elastase]”: in [1] (setting [10]), the Km was determined as 2.27 µM, the kcat was 2.58 s⁻¹ and the kcat/KM was 1 147 219 M^−1s^−1.
As for Ornithine, in the data set with trypsin (setting [9]), the Km worked out at 21.9 µM, the kcat amounted to 0.0017 s⁻¹ and the kcat/KM was 78 s^−1M^−1.
